Laboratory results taken from patent US12285357B2, “Intraocular drug delivery systems and methods of use” (SpyGlass Pharma, Inc., priority 2022, dated 2025).

Assays:
[1] = Bimatoprost sampled in the aqueous humor of dogs over time (FIG. 9); type: in vivo
Description: FIG. 9 is an exemplary graph of a therapeutic agent delivered to the aqueous humor of an eye of canines versus time.
In this example, there was a low dose group of dogs (Grp 1), a mid-dose group of dogs (Grp 2), a high dose group of dogs (Grp 3), and a placebo group of dogs (Grp 4).

[2] = daily release or elution of Bimatoprost in vitro versus time (FIG. 8); type: physicochemical; details: four-hundred-day study
Description: FIG. 8 is an exemplary graph of daily release or elution of a pharmaceutical or therapeutic agent in vitro versus time. […] The target release rate in this study on rabbits was 0.050 to 0.100 micrograms per day.

level of Bimatoprost in the aqueous humor, elution order ([1]; low dose (Grp 1), mid-dose (Grp 2), high dose (Grp 3), study period about one hundred thirteen days): zero-order elution rate
mean measurements of Bimatoprost in the aqueous humor versus dose ([1]; low, mid and high dose groups, sampled in ng/mL): increased with the higher doses
SMILES: CCNC(=O)CCC/C=C\C[C@@H]1[C@@H](/C=C/[C@@H](O)CCc2ccccc2)[C@H](O)C[C@@H]1O [Bimatoprost]
release rate order over time [2]: essentially a zero-order and/or a steady state elution rate
